Measured values from patent US5093134A, “Method of treating HIV infection using polyoxometallates” (Johnson Matthey Public Limited Company, priority 1989, dated 1992).
“And” between values parts separate entries of the source, which are not always exact repeats. Equal values may be shown once.

Assays:
cells = conditions: in words; cited from earlier work
MT-4 cells = experiment: in vitro
Procedure: (§1) The compounds were tested in a screen by the MTT method (J. Virol. Methods […]: 309-321 [1988]). MT-4 cells (2.5×10^4 /well) were infected with HIV-1 (HTLV-IIIB) or HIV-2 (LAV-2 ROD) at a concentration of 100 CCID50 and incubated in the presence of various concentrations of the test compounds, which were added immediately after infection with the virus. After 5 days culture at 37° C. in a CO2 incubator, the number of viable cells was assessed by the MTT (tetrazolium) method. […] The potential therapeutic usefulness was assessed by calculating a Selectivity Index (SI) corresponding to the ratio of CD50 to ED50.

in vitro = conditions: human, mt-4 cells
Procedure: as §1

HIV-1 (HTLV-IIIB) = experiment: microbe, parasite or virus in culture; format: cell-based; conditions: for Selectivity Index (SI), ratio of CD50 to ED50 / ED50: HIV-1, MT-4 cells; for ED50: 100 CCID50, 5 days, MTT
Procedure: as §1

HIV-2 (LAV-2 ROD) = experiment: MTT screen of HIV-2 infected MT-4 cells (antiviral activity); format: cell-based; conditions: for ED50: 100 CCID50, 5 days, MTT
Procedure: as §1

herpes virus = conditions: in words; cited from earlier work
reverse transcriptase = conditions: in words; cited from earlier work
HIV = conditions: in words; cited from earlier work

Cc1cn([C@H]2C[C@H](N=[N+]=[N-])[C@@H](CO)O2)c(=O)[nH]c1=O [AZT, reference compound]
toxicity to cells (cells): high toxicity to cells | toxicity (in words) (MT-4 cells): rather high toxicity | CC50 at 120 h (in vitro): > 1000 nM | Selectivity Index (SI), ratio of CD50 to ED50 (HIV-1 (HTLV-IIIB)): 125 and > 125 | EC50 (HIV-1 (HTLV-IIIB); Human immunodeficiency virus 1, IIIB, MT4, 120 h, read-out: ED50): < 8 nM

((CH3)3 NH^+)5 [SiSn(CH3)W11 O39 ]yH2 O [Compound C]
Selectivity Index (SI), ratio of CD50 to ED50 (HIV-2 (LAV-2 ROD)): 19 | ED50 (HIV-2 (LAV-2 ROD)): 3.48 µg/mL | Selectivity Index (SI), ratio of CD50 to ED50 (HIV-1 (HTLV-IIIB)): 40 | ED50 (HIV-1 (HTLV-IIIB)): 0.57 µg/mL

(C5 H5 NH^+)6 [SiCo(C5 H5 N)W11 O39 ]yH2 O [Compound A]
CD50 (MT-4 cells; human, mt-4 cells, 120 h): > 1000.0 µg/mL | Selectivity Index (SI), ratio of CD50 to ED50 (HIV-2 (LAV-2 ROD)): > 415 | ED50 (HIV-2 (LAV-2 ROD)): 2.41 µg/mL | Selectivity Index (SI), ratio of CD50 to ED50 (HIV-1 (HTLV-IIIB)): > 502 | ED50 (HIV-1 (HTLV-IIIB)): 1.99 µg/mL

(C6 H11 NH3^+)6 [SiCo(C6 H11 NH2)W11 O39 ]yH2 O [Compound B]
Selectivity Index (SI), ratio of CD50 to ED50 (HIV-2 (LAV-2 ROD)): 26 | ED50 (HIV-2 (LAV-2 ROD)): 3.01 µg/mL | Selectivity Index (SI), ratio of CD50 to ED50 (HIV-1 (HTLV-IIIB)): 99 | ED50 (HIV-1 (HTLV-IIIB)): 0.98 µg/mL

K5 BW12 O40
activity against herpes virus (herpes virus): activity against herpes virus

K5 [BPt(OH2)W11 O39 ]yH2 O
Selectivity Index (SI), ratio of CD50 to ED50 (HIV-2 (LAV-2 ROD)): 49 | ED50 (HIV-2 (LAV-2 ROD)): 6.21 µg/mL | Selectivity Index (SI), ratio of CD50 to ED50 (HIV-1 (HTLV-IIIB)): 198 | ED50 (HIV-1 (HTLV-IIIB)): 1.66 µg/mL

K5 [PCu(OH2)W11 O39 ]yH2 O
Selectivity Index (SI), ratio of CD50 to ED50 (HIV-2 (LAV-2 ROD)): > 68 | ED50 (HIV-2 (LAV-2 ROD)): < 2.0 µg/mL | Selectivity Index (SI), ratio of CD50 to ED50 (HIV-1 (HTLV-IIIB)): > 82 | ED50 (HIV-1 (HTLV-IIIB)): 3.04 µg/mL

K5 [PNi(OH2)W11 O39 ]14H2 O
Selectivity Index (SI), ratio of CD50 to ED50 (HIV-2 (LAV-2 ROD)): < 1 | ED50 (HIV-2 (LAV-2 ROD)): > 250.0 µg/mL | Selectivity Index (SI), ratio of CD50 to ED50 (HIV-1 (HTLV-IIIB)): < 1 | ED50 (HIV-1 (HTLV-IIIB)): > 250.0 µg/mL

K5 [SiGa(OH2)W11 O39 ]yH2 O
Selectivity Index (SI), ratio of CD50 to ED50 (HIV-2 (LAV-2 ROD)): 14 | ED50 (HIV-2 (LAV-2 ROD)): 6.19 µg/mL | Selectivity Index (SI), ratio of CD50 to ED50 (HIV-1 (HTLV-IIIB)): 100 | ED50 (HIV-1 (HTLV-IIIB)): 1.06 µg/mL

K6 [BGa(OH2)W11 O39 ]yH2 O
Selectivity Index (SI), ratio of CD50 to ED50 (HIV-2 (LAV-2 ROD)): 298 | ED50 (HIV-2 (LAV-2 ROD)): 1.62 µg/mL | Selectivity Index (SI), ratio of CD50 to ED50 (HIV-1 (HTLV-IIIB)): 5151 | ED50 (HIV-1 (HTLV-IIIB)): 0.12 µg/mL

K6 [BRh(OH2)W11 O39 ]14H2 O
Selectivity Index (SI), ratio of CD50 to ED50 (HIV-2 (LAV-2 ROD)): 18 | ED50 (HIV-2 (LAV-2 ROD)): 31.58 µg/mL | Selectivity Index (SI), ratio of CD50 to ED50 (HIV-1 (HTLV-IIIB)): 97 | ED50 (HIV-1 (HTLV-IIIB)): 5.88 µg/mL

K6 [SiCo(OH2)W11 O39 ]yH2 O
Selectivity Index (SI), ratio of CD50 to ED50 (HIV-2 (LAV-2 ROD)): > 15 | ED50 (HIV-2 (LAV-2 ROD)): < 2.0 µg/mL | Selectivity Index (SI), ratio of CD50 to ED50 (HIV-1 (HTLV-IIIB)): > 52 | ED50 (HIV-1 (HTLV-IIIB)): < 2.0 µg/mL

K6 [SiCu(OH2)W11 O39 ]yH2 O
Selectivity Index (SI), ratio of CD50 to ED50 (HIV-2 (LAV-2 ROD)): > 125 | ED50 (HIV-2 (LAV-2 ROD)): < 2.0 µg/mL | Selectivity Index (SI), ratio of CD50 to ED50 (HIV-1 (HTLV-IIIB)): > 84 | ED50 (HIV-1 (HTLV-IIIB)): < 2.0 µg/mL

K6 [SiNi(OH2)W11 O39 ]15H2 O
CD50 (MT-4 cells; human, mt-4 cells, 120 h): 198.43 µg/mL | Selectivity Index (SI), ratio of CD50 to ED50 (HIV-2 (LAV-2 ROD)): 55 | ED50 (HIV-2 (LAV-2 ROD)): 3.58 µg/mL | Selectivity Index (SI), ratio of CD50 to ED50 (HIV-1 (HTLV-IIIB)): 103 | ED50 (HIV-1 (HTLV-IIIB)): 1.93 µg/mL

K7 PW10 Ti2 O40
activity against herpes virus (herpes virus): activity against herpes virus

K7 [BCo(OH2)W11 O39 ]yH2 O
Selectivity Index (SI), ratio of CD50 to ED50 (HIV-2 (LAV-2 ROD)): < 1 | ED50 (HIV-2 (LAV-2 ROD)): > 200.0 µg/mL | Selectivity Index (SI), ratio of CD50 to ED50 (HIV-1 (HTLV-IIIB)): 47 | ED50 (HIV-1 (HTLV-IIIB)): 2.74 µg/mL

K7 [BCu(OH2)W11 O39 ]yH2 O
Selectivity Index (SI), ratio of CD50 to ED50 (HIV-2 (LAV-2 ROD)): 62 | ED50 (HIV-2 (LAV-2 ROD)): 2.56 µg/mL | Selectivity Index (SI), ratio of CD50 to ED50 (HIV-1 (HTLV-IIIB)): 32 | ED50 (HIV-1 (HTLV-IIIB)): 3.51 µg/mL

K13 [Ce(SiW11 O39)2 ]26H2 O
CD50 (MT-4 cells; human, mt-4 cells, 120 h): > 1000.0 µg/mL | Selectivity Index (SI), ratio of CD50 to ED50 (HIV-2 (LAV-2 ROD)): > 6357 | ED50 (HIV-2 (LAV-2 ROD)): 0.157 µg/mL | Selectivity Index (SI), ratio of CD50 to ED50 (HIV-1 (HTLV-IIIB)): > 2561 | ED50 (HIV-1 (HTLV-IIIB)): 0.39 µg/mL

NaSb9 W21 O86 [HPA-23, reference compound]
reverse transcriptase inhibition (reverse transcriptase): reverse transcriptase inhibitor | CD50 (MT-4 cells; HIV-1, MT-4 cells, 5 days, 37° C., MTT): 7.4 µg/mL | CD50 (MT-4 cells; HIV-2, MT-4 cells, 5 days, 37° C., MTT): 2.4 µg/mL | Selectivity Index (SI), ratio of CD50 to ED50 (HIV-2 (LAV-2 ROD)): < 1 | ED50 (HIV-2 (LAV-2 ROD)): > 4 µg/mL | Selectivity Index (SI), ratio of CD50 to ED50 (HIV-1 (HTLV-IIIB)): 3 | ED50 (HIV-1 (HTLV-IIIB)): 2.8 µg/mL

silicotungstate acid [H4 SiW12 O40]
activity against HIV (HIV): activity against HIV
